# Where a SMILES comes first, the peptide text is derived from it.
# Legend:
# Gram-positive bacteria = test: MIC against Gram-positive bacteria; type: cell-based; conditions: broth microdilution
# Method: (§1) The broth microdilution procedure involves preparing CAMHB broth, a bacterial suspension adjusted to McFarland 0.5 (1.5 × 10^8 CFU/mL) and diluted 200×, and a drug solution at 2× the final target concentration. To achieve a 400× final bacterial dilution, add 100 μL of the drug at different doses to a 96-well plate, then 100 μL of the diluted bacterial culture. Measure the initial absorbance (0 h), incubate at 37 °C for 16–18 h, and measure the final absorbance. With no change in absorbance, the MIC signifies the absence of bacterial growth.
# HK-2 cells = test: Cytotoxicity assay (MTT); type: cell-based
# Method: (§2) We tested the cytotoxicity of several antibiotic compounds, including peptides and nanoparticles, on the human embryonic kidney cell lines HEK-293, HK-2, and […]. The cells were stored in DMEM medium and incubated at 37 °C with 5% CO2 in a humidifying environment. Using the MTT (methylthiazolyldiphenyl-tetrazolium bromide) test, cell viability was evaluated. Following a 5 × 10^3 cell/mL seeding in 96-well plates, the cells were exposed to 100 μL of samples at varying concentrations (12.5–200 μM) during 72 h at 37 °C. Later, each well is loaded with MTT solution (5 mg/mL in PBS) at a volume of 10 μL. The plates were left in the dark for 4 h. After forming formazan crystals due to the action of mitochondrial reductases in living cells, the crystals were dissolved using a solubilizing solution (pH 4.7, 40% dimethylformamide, 2% glacial acetic acid, and 16% sodium dodecyl sulfate) were shaken at 150 rpm and incubated for an hour at 37 °C. Using graphical plot analysis, the IC50 value–the concentration that results in 50% cell death–was obtained by measuring the absorbance of the dissolved formazan at 570 nm. The average of three independent tests, each carried out in triplicate, was used to display the results.
# HEK293 = type: cell-based, human; conditions: 72 h
# Method: as §2
# S. aureus ATCC33592 = type: cell-based
# Method: as §1
# S. aureus ATCC25923 = type: cell-based
# Method: as §1
# [1] = system: A. baumannii ATCC BAA-747; type: cell-based
# Method: as §1
# S. aureus ATCC700698 = type: cell-based
# Method: as §1
# [2] = system: K. pneumoniae ATCC BAA-1705; type: cell-based
# Method: as §1
# E. faecalis ATCC 29212 = type: cell-based
# Method: as §1
# S. aureus ATCC29213 = type: cell-based
# Method: as §1
# P. aeruginosa ATCC27853 = type: cell-based
# Method: as §1
# [3] = system: K. pneumoniae ATCCC700603; type: cell-based
# Method: as §1
# A. baumannii ATCC19606 = type: cell-based
# Method: as §1
# CRAB isolate AB-08 = type: cell-based, A. baumannii
# Description: (§3) The blood samples of patients from Kaohsiung Medical University were used to collect and cryopreserve all of the CRAB clinical isolates. Analytical graded chemicals and reagents were utilized throughout the investigation. The T2–02 peptide (MW 2646.27 Da) was custom-synthesized by Kelowna International Scientific Inc., 1,2-[…]-sn-glycero-3-phosphoethanolamine-N-[methoxy(polyethylene glycol)-2000] (ammonium salt) (DSPE-PEG2000, MW 2693.285 Da) was purchased from Laysan Bio Inc., 1,2-Dioleoyl-sn-glycero-3-phosphocholine (DOPC, MW 786.1 Da) was acquired from BroadPharm, and Poly-L-lysine hydrobromide (30–70 kDa) was sourced from Sigma-Aldrich.
# as §1
# CRAB isolate AB-13 = type: cell-based, A. baumannii
# Description: as §3, §1
# CRAB isolate AB-22 = type: cell-based, A. baumannii
# Description: as §3, §1
# CRAB isolate AB-07 = type: cell-based, A. baumannii
# Description: as §3, §1
# CRAB isolate AB-19 = type: cell-based, A. baumannii
# Description: as §3, §1
# CRAB isolate AB-23 = type: cell-based, A. baumannii
# Description: as §3, §1
# CRAB isolate AB-12 = type: cell-based, A. baumannii
# Description: as §3, §1
# CRAB isolate AB-03 = type: cell-based, A. baumannii
# Description: as §3, §1
# CRAB isolate AB-11 = type: cell-based, A. baumannii
# Description: as §3, §1
# CRAB isolate AB-05 = type: cell-based, A. baumannii
# Description: as §3, §1
# CRAB isolate AB-24 = type: cell-based, A. baumannii
# Description: as §3, §1
# CRAB isolate AB-15 = type: cell-based, A. baumannii
# Description: as §3, §1
# CRAB isolate AB-06 = type: cell-based, A. baumannii
# Description: as §3, §1
# CRAB isolate AB-18 = type: cell-based, A. baumannii
# Description: as §3, §1
# CRAB isolate AB-02 = type: cell-based, A. baumannii
# Description: as §3, §1
# CRAB isolate AB-17 = type: cell-based, A. baumannii
# Description: as §3, §1
# CRAB isolate AB-01 = type: cell-based, A. baumannii
# Description: as §3, §1
# CRAB isolate AB-04 = type: cell-based, A. baumannii
# Description: as §3, §1
# CRAB isolate AB-21 = type: cell-based, A. baumannii
# Description: as §3, §1
# CRAB isolate AB-09 = type: cell-based, A. baumannii
# Description: as §3, §1
# CRAB isolate AB-10 = type: cell-based, A. baumannii
# Description: as §3, §1
# CRAB isolate AB-14 = type: cell-based, A. baumannii
# Description: as §3, §1
# CRAB isolate AB-20 = type: cell-based, A. baumannii
# Description: as §3, §1
# CRAB isolate AB-16 = type: cell-based, A. baumannii
# Description: as §3, §1
# THP-1 = type: cell-based; conditions: 72 h
# E. coil ATCC25922 = type: cell-based, E. coli
# Method: as §1
smiles,measurement,setting,value
CC[C@H](C)[C@H](NC(=O)[C@H](CCCCN)NC(=O)CNC(=O)[C@H](CCCNC(=N)N)NC(=O)[C@H](CCCNC(=N)N)NC(=O)[C@H](CCCCN)NC(=O)[C@H](CC(C)C)NC(=O)[C@H](CC(C)C)NC(=O)[C@H](CCCNC(=N)N)NC(=O)[C@H](CCCCN)NC(=O)[C@H](Cc1c[nH]c2ccccc12)NC(=O)[C@H](CC(C)C)NC(=O)[C@H](C)N)C(=O)N[C@H](C(=O)N[C@@H](CC(C)C)C(=O)N[C@@H](CC(N)=O)C(=O)N[C@@H](CCC(=O)O)C(=O)N[C@@H](CCCNC(=N)N)C(=O)N[C@@H](CC(C)C)C(=O)N[C@@H](CCCNC(=N)N)C(=O)N[C@@H](CC(C)C)C(=O)O)[C@@H](C)CC [T2–02] (H-ALWKRLLKRRGKIILNERLRL-OH),MIC against Gram-positive bacteria (range),Gram-positive bacteria,64 to 256 µg/mL
same,Cytotoxicity HK-2 related to PMB,HK-2 cells,30.9
same,IC50 HK-2,"HK-2 cells; concentration causing 50% cell death, MTT, 72 h, 37 °C, average of three independent tests in triplicate",557 µg/mL
same,IC50 HEK293,HEK293,1101 µg/mL
same,MIC,S. aureus ATCC33592,256 µg/mL
same,MIC,S. aureus ATCC25923,256 µg/mL
same,MIC,[1],8 µg/mL
same,MIC,S. aureus ATCC700698,256 µg/mL
same,MIC,[2],512 µg/mL
same,MIC,E. faecalis ATCC 29212,64 µg/mL
same,MIC,S. aureus ATCC29213,64 µg/mL
same,MIC,P. aeruginosa ATCC27853,8 µg/mL
same,MIC,[3],128 µg/mL
same,MIC,A. baumannii ATCC19606,8 µg/mL
same,MIC,CRAB isolate AB-08,8 µg/mL
same,MIC,CRAB isolate AB-13,4 µg/mL
same,MIC,CRAB isolate AB-22,8 µg/mL
same,MIC,CRAB isolate AB-07,8 µg/mL
same,MIC,CRAB isolate AB-19,8 µg/mL
same,MIC,CRAB isolate AB-23,8 µg/mL
same,MIC,CRAB isolate AB-12,16 µg/mL
same,MIC,CRAB isolate AB-03,4 µg/mL
same,MIC,CRAB isolate AB-11,8 µg/mL
same,MIC,CRAB isolate AB-05,8 µg/mL
same,MIC,CRAB isolate AB-24,8 µg/mL
same,MIC,CRAB isolate AB-15,8 µg/mL
same,MIC,CRAB isolate AB-06,8 µg/mL
same,MIC,CRAB isolate AB-18,16 µg/mL
same,MIC,CRAB isolate AB-02,8 µg/mL
same,MIC,CRAB isolate AB-17,8 µg/mL
same,MIC,CRAB isolate AB-01,8 µg/mL
same,MIC,CRAB isolate AB-04,8 µg/mL
same,MIC,CRAB isolate AB-21,8 µg/mL
same,MIC,CRAB isolate AB-09,8 µg/mL
same,MIC,CRAB isolate AB-10,8 µg/mL
same,MIC,CRAB isolate AB-14,8 µg/mL
same,MIC,CRAB isolate AB-20,8 µg/mL
same,MIC,CRAB isolate AB-16,16 µg/mL
same,IC50 THP-1,THP-1,866 µg/mL
same,MIC,E. coil ATCC25922,64 µg/mL
